Tests used:
[1] = tested on: sensitization and elicitation of sensitization to tetracaine; test: Sensitization and elicitation of sensitization to tetracaine during the challenge phase, visual score; format: in vivo, hairless guinea pigs; set-up: scale not given here; conditions: challenge 1% tetracaine, alone or + methyl nicotinate (1.0 w/v percent), Table 1 scale
Source text: (§1) After the ninth induction exposure, the animals received no treatment for two weeks. The following formulations were used to determine the effect of methyl nicotinate on the sensitization and elicitation of sensitization to tetracaine during the challenge phase:
(§2) 1) 1 w/v percent tetracaine HCl, 28 w/v percent ethanol, 5 w/v percent HEPPS, 2 w/v percent hydroxypropylcellulose, NaOH q.s. pH 8 and distilled water q.s.,
(§3) 2) 1 w/v percent tetracaine HCl, 1.0 w/v percent methyl nicotinate, 28 w/v percent ethanol, 5 w/v percent HEPPS, 2 w/v percent hydroxypropylcellulose, NaOH q.s. pH 8 and distilled water q.s., and
(§4) 3) 28 w/v percent ethanol, 5 w/v percent HEPPS, 2 w/v percent hydroxypropylcellulose, NaOH q.s. pH 8 and distilled water q.s.
(§5) 0.1 ml of each formulation was placed in a Finn® chamber. The chamber was then applied to the backs of the animals for 6 hours on previously untreated sites.

[2] = tested on: cumulative irritation produced by tetracaine HCl; test: Cumulative irritation produced by tetracaine HCl during the induction phase, visual score; format: in vivo, hairless guinea pigs; conditions: 2% tetracaine, alone or + 1% methyl nicotinate, Table 1 scale (total possible score 8)
Source text: The following formulations were made to determine the effect of methyl nicotinate on the cumulative irritation produced by tetracaine HCl during the induction phase:
1) 2 w/v percent tetracaine HCl, 28 w/v percent ethanol, 5 w/v percent HEPPS, 2 w/v percent hydroxypropylcellulose, NaOH q.s. pH 8 and distilled water q.s.,
2) 2 w/v percent tetracaine HCl, 1.0 w/v percent methyl nicotinate, 28 w/v percent ethanol, 5 w/v percent HEPPS, 2 w/v percent hydroxypropylcellulose, NaOH q.s. pH 8 and distilled water q.s., and
as §4
0.1 ml of each formulation was placed in a Finn® chamber, and applied to the back of a hairless guinea pigs (Charles River). After 6 hours the chambers were removed. This was repeated a total of nine times. The inductions were alternated between two sites, such that one site received five applications and the other site received four applications. Two, 24 and 48 hours after removal of the first, fourth, seventh and ninth applications, the treatment sites were scored to assess irritation.

[3] = tested on: sensitization and elicitation of sensitization to tetracaine; test: Sensitization and elicitation reactions to tetracaine at 72 hours, Minolta Chroma Meter; format: in vivo, hairless guinea pigs; conditions: for a" value: challenge 1% tetracaine, alone or + 1% methyl nicotinate, Minolta Chroma Meter
Source text: The Minolta® Chroma Meter converts all colors within the range of human perception into a numerical code using the L*, a* and b* notation system. L* expresses brightness on the black-white axis; a* expresses hue on the red-green axis; and b* expresses chroma on the yellow-blue axis so that a specific numerical code enables an exact color description of an object. Minolta® measurements were made by taking the mean a* value of three readings at the treated site.
as §1, §2, §3, §4, §5
The test sites of the animals were then scored using a Minolta® Chroma Meter.

[4] = tested on: chloroquine-induced irritation; test: Effect of methyl nicotinate on chloroquine-induced irritation (Finn chamber, Minolta Chroma Meter); format: in vivo, adult human male; conditions: 0.05 w/v methyl nicotinate with chloroquine base 1% w/v, 16 hours application, human forearm; scored 3 hours to 7 days; FIG. 5
Source text: The following formulations were made to determine the effect of methyl nicotinate on chloroquine-induced irritation:
1) chloroquine base 1% w/v, ethanol 24% w/v, HEPPS 5% w/v, hydroxyethylcellulose gel 2% w/v, NaOH q.s. pH 8.5 and distilled water q.s.,
2) chloroquine base 1% w/v, methyl nicotinate 0.05 w/v, ethanol 24% w/v, HEPPS 5% w/v, hydroxyethylcellulose gel 2% w/v, NaOH q.s. pH 8.5 and distilled water q.s.,
3) methyl nicotinate 0.05 w/v, ethanol 24% w/v, HEPPS 5% w/v, hydroxyethyl cellulose gel 2% w/v, NaOH q.s. pH 8.5 and distilled water q.s., and
4) ethanol 24% w/v, HEPPS 5% w/v, hydroxyethylcellulose gel 2% w/v, NaOH q.s. pH 8.5 and distilled water q.s.
0.020 ml of each formulation was placed in a Finn® chamber. The chambers were inverted and applied to four skin sites on the forearm of an adult human. […] At 3 hours, 8 hours, 1 day, 2 days, 3 days, 4 days, 6 days and 7 days thereafter, the sites were observed and the intensity of the irritant reaction was scored with a Minolta® Chroma Meter.
The Minolta® Chroma Meter converts all colors within the range of human perception into a numerical code using the L*, a* and b* notation system. […] Minolta® measurements were made by taking the mean a* value of three readings at the treated site. That result was then subtracted from the mean a* value of three readings at adjacent sites treated with a placebo formulation.

[5] = tested on: elicitation of sensitization to propranolol; test: Effect of methyl nicotinate on the elicitation of sensitization to propranolol (Minolta Chroma Meter); format: in vivo, adult male known to be sensitized to propranolol; conditions: 0.05 w/v percent methyl nicotinate with 0.1 w/v percent propranolol base, two hours application, upper arm; recorded two and three days later; FIG. 6
Source text: The following formulations were made to determine the effect of methyl nicotinate on the elicitation of sensitization to propranolol:
1) 0.1 w/v percent propranolol base, 32 w/v percent ethanol, 5 w/v percent HEPPS, 2 w/v percent hydroxyethylcellulose, NaOH q.s. pH 8 and distilled water q.s., and
2) 0.1 w/v percent propranolol base, 0.05 w/v percent methyl nicotinate, 32 w/v percent ethanol, 5 w/v percent HEPPS, 2 w/v percent hydroxyethylcellulose, NaOH q.s. pH 8 and distilled water q.s.
0.020 ml of each formulation was placed in a Finn® chamber. The chambers were applied to four sites on the upper arm of an adult, who was known to be sensitized to propranolol. After two hours the chambers were removed and the sites washed. The intensity of the reaction was recorded two and three days later using the mean a* measurement recorded by a Minolta® Chroma Meter.

How did the “visual score of challenge site” value ([1]; induction 2% tetracaine + 1% methyl nicotinate, 2 h after removal) turn out when `CCCCNc1ccc(C(=O)OCCN(C)C)cc1` [tetracaine] was run?
Its value is 2.8.

And the “visual score of challenge site” value ([1]; induction 2% tetracaine + 1% methyl nicotinate, 24 h after removal)?
The value was 2.3.

What about the “visual score of challenge site” value ([1]; induction 2% tetracaine + 1% methyl nicotinate, 48 h after removal) of the same molecule?
The value was 2.1.

What about the “visual score of challenge site” value ([1]; induction 2% tetracaine + 1% methyl nicotinate, 72 h after removal) of the same molecule?
The value was 2.0.

And the “visual score of challenge site” value ([1]; induction 2% tetracaine, 2 h after removal)?
The value was 3.4.

What about the “visual score of challenge site” value ([1]; induction 2% tetracaine, 24 h after removal) of the same molecule?
Its value is 2.5.

And the “visual score of challenge site” value ([1]; induction 2% tetracaine, 48 h after removal)?
Its value is 2.2.

What about the “visual score of challenge site” value ([1]; induction 2% tetracaine, 72 h after removal) of the same molecule?
The value was 2.1.

What about the “visual score of challenge site” value ([1]; induction Control, 2 h after removal) of the same molecule?
Its value is 1.6.

And the “visual score of challenge site” value ([1]; induction Control, 24 h after removal)?
Its value is 1.0.

What about the “visual score of challenge site” value ([1]; induction Control, 48 h after removal) of the same molecule?
The value was 0.8.

And the “visual score of challenge site” value ([1]; induction Control, 72 h after removal)?
Its value is 0.6.

And the visual irritation score ([2]; application four, 2 h after removal)?
The visual irritation score was 2.7.

And the visual irritation score ([2]; application four, 24 h after removal)?
The visual irritation score was 2.6.

What about the visual irritation score ([2]; application four, 48 h after removal) of the same molecule?
The visual irritation score was 1.8.

What about the visual irritation score ([2]; application nine, 2 h after removal) of the same molecule?
Its visual irritation score is 6.7.

What about the visual irritation score ([2]; application nine, 24 h after removal) of the same molecule?
Its visual irritation score is 6.6.

What about the visual irritation score ([2]; application nine, 48 h after removal) of the same molecule?
The visual irritation score was 6.0.

What about the visual irritation score ([2]; application one, 2 h after removal) of the same molecule?
Its visual irritation score is 1.9.

And the visual irritation score ([2]; application one, 24 h after removal)?
The visual irritation score was 1.2.

And the visual irritation score ([2]; application one, 48 h after removal)?
Its visual irritation score is 1.1.

What about the visual irritation score ([2]; application seven, 2 h after removal) of the same molecule?
Its visual irritation score is 5.8.

What about the visual irritation score ([2]; application seven, 24 h after removal) of the same molecule?
Its visual irritation score is 5.9.

And the visual irritation score ([2]; application seven, 48 h after removal)?
The visual irritation score was 5.6.

What about the “a" value” ([3]; induction formulation 2% tetracaine + 1% methyl nicotinate) of the same molecule?
The value was 10.6.

What about the “a" value” ([3]; induction formulation 2% tetracaine) of the same molecule?
The value was 12.8.

And the “a" value” ([3]; induction formulation Control)?
Its value is 8.8.

`COC(=O)c1cccnc1` [methyl nicotinate] was tested. Which “irritant reaction (mean a* value)” value [4] did it give?
The value was “reduced the irritant reaction”.

And the “elicitation of the sensitization reaction (mean a* value)” value [5]?
Its value is “inhibited the elicitation of the sensitization reaction”.

And the “elicitation reaction to tetracaine (Minolta scores)” value ([3]; FIG. 9)?
The value was “decreased”.

What about the “sensitization reaction to tetracaine (Minolta scores)” value ([3]; FIG. 9) of the same molecule?
Its value is “decreased”.

Reference: patent US5451407A, “Reduction or prevention of skin irritation or sensitization during transdermal administration of a irritating or sensitizing drug” (ALZA Corporation, priority 1993, dated 1995)
